{
  "source": "the supplement of paper PMC10307832",
  "test_in_all_cases": "relative viability (nuclei count vs DMSO), 5 days (fraction); higher = more cells survive",
  "key": {"GSK126 + Tozasertib": {"compound": "CC[C@H](C)N1C=C(C2=C(C=C(C=C21)C3=CN=C(C=C3)N4CCNCC4)C(=O)NCC5=C(C=C(NC5=O)C)C)C [GSK126] + Cc1cc(Nc2cc(N3CCN(C)CC3)nc(Sc3ccc(NC(=O)C4CC4)cc3)n2)n[nH]1 [Tozasertib] (partner 0.1 µM)", "method_in_brief": "(§1)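 Lung cancer cell lines were pin-tool dosed in 1536-well plates on the day after seeding, with either a lone drug or a fixed anchor-drug dose plus five library-drug doses (not always all listed) in √10 steps. Nuclei were counted on 4× images after 5 days. Relative viability is the ratio of treated-well to vehicle-well nuclei counts, with each value a median of duplicate plates.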"}, "MLN4924 + Decitabine": {"compound": "NS(=O)(=O)OC[C@@H]1C[C@@H](n2ccc3c(N[C@H]4CCc5ccccc54)ncnc32)C[C@@H]1O [MLN4924] + Nc1ncn([C@H]2C[C@H](O)[C@@H](CO)O2)c(=O)n1 [Decitabine] (partner 2 µM)", "method_in_brief": "as §1"}, "GSK126 + Dasatinib": {"compound": "CC[C@H](C)N1C=C(C2=C(C=C(C=C21)C3=CN=C(C=C3)N4CCNCC4)C(=O)NCC5=C(C=C(NC5=O)C)C)C [GSK126] + Cc1nc(Nc2ncc(C(=O)Nc3c(C)cccc3Cl)s2)cc(N2CCN(CCO)CC2)n1 [Dasatinib] (partner 0.075 µM)", "method_in_brief": "as §1"}, "MLN4924 + Bortezomib": {"compound": "NS(=O)(=O)OC[C@@H]1C[C@@H](n2ccc3c(N[C@H]4CCc5ccccc54)ncnc32)C[C@@H]1O [MLN4924] + CC(C)C[C@H](NC(=O)[C@H](Cc1ccccc1)NC(=O)c1cnccn1)B(O)O [Bortezomib] (partner 0.002 µM)", "method_in_brief": "as §1"}},
  "data": [
    {"cell line": "UMC-11", "values": [
      {"measurement": "relative viability", "setting": "GSK126 + Tozasertib; first compound 0.08 µM", "result": 0.205},
      {"measurement": "relative viability", "setting": "GSK126 + Tozasertib; first compound 0.253 µM", "result": 0.209},
      {"measurement": "relative viability", "setting": "GSK126 + Tozasertib; first compound 0.8 µM", "result": 0.197},
      {"measurement": "relative viability", "setting": "GSK126 + Tozasertib; first compound 2.53 µM", "result": 0.188},
      {"measurement": "relative viability", "setting": "GSK126 + Tozasertib; first compound 8 µM", "result": 0.199},
      {"measurement": "relative viability", "setting": "MLN4924 + Decitabine; first compound 0.04 µM", "result": 0.559},
      {"measurement": "relative viability", "setting": "MLN4924 + Decitabine; first compound 0.1265 µM", "result": 0.511},
      {"measurement": "relative viability", "setting": "MLN4924 + Decitabine; first compound 0.4 µM", "result": 0.402},
      {"measurement": "relative viability", "setting": "MLN4924 + Decitabine; first compound 1.265 µM", "result": 0.309},
      {"measurement": "relative viability", "setting": "MLN4924 + Decitabine; first compound 4 µM", "result": 0.277},
      {"measurement": "relative viability", "setting": "GSK126 + Dasatinib; first compound 0.08 µM", "result": 0.512},
      {"measurement": "relative viability", "setting": "GSK126 + Dasatinib; first compound 0.253 µM", "result": 0.475},
      {"measurement": "relative viability", "setting": "GSK126 + Dasatinib; first compound 0.8 µM", "result": 0.443},
      {"measurement": "relative viability", "setting": "GSK126 + Dasatinib; first compound 2.53 µM", "result": 0.417},
      {"measurement": "relative viability", "setting": "GSK126 + Dasatinib; first compound 8 µM", "result": 0.437},
      {"measurement": "relative viability", "setting": "MLN4924 + Bortezomib; first compound 0.04 µM", "result": 0.529},
      {"measurement": "relative viability", "setting": "MLN4924 + Bortezomib; first compound 0.1265 µM", "result": 0.301},
      {"measurement": "relative viability", "setting": "MLN4924 + Bortezomib; first compound 0.4 µM", "result": 0.269},
      {"measurement": "relative viability", "setting": "MLN4924 + Bortezomib; first compound 1.265 µM", "result": 0.1},
      {"measurement": "relative viability", "setting": "MLN4924 + Bortezomib; first compound 4 µM", "result": 0.0977}
    ]}
  ]
}
